Entries after “also recorded” stand apart in the source; their conditions may differ.
Legend:
[1] = tested on: MSC; assay: MSC osteoblast maturation, function, migration and lineage potentials; type: cell-based
[2] = tested on: C57BL/6 mice; assay: Guiding GFP-labeled mouse MSCs to bone; type: in vivo; settings: for osteocalcin levels: 0.9 nmol/mouse I.P. one hour after GFP-MSC I.V.
Description: LLP2A-Ale or LLP2A-Ale (1) were dissolved in 0.9% normal saline and injected I.P. to the mice one hour after MSC at a final solution of 0.9 nmol/mouse. Mice were sacrificed either at 3 days or 3 weeks. Osteocalcin, a bone formation marker, was measured at both 3 days and 3 weeks post-treatments. The lumbar vertebral bodies from the 3-day treatment groups were frozen and sectioned with cryostat. The sections were then stained with anti-GFP antibody. The transplanted MSCs were stained in brown.

[3] = tested on: bone marrow cells undergoing osteogenic differentiation; assay: Rainbow bead cell-binding assay; type: cell-based, mouse; settings: cells cultured in osteogenic medium for 7 days, incubated with rainbow beads
Description: Mouse MSCs were purchased from Invitrogen (Cat#S1502-100), cultured in osteogenic medium for 7 days and incubated with rainbow beads for one hour. […] Original magnification 10× on the right and 20× on the left of the top panel.
A new color-encoding method that facilitates high-throughput screening of OBOC combinatorial libraries was developed. This method differs from the traditional methods used to monitor integrin expressions in the MSCs, i.e., the use of antibody-based fluorescence-activated cell sorting (FACS) or immunoblotting. In the present method, polymer beads displaying chemical compounds or families of compounds were stained with oil-based organic dyes that are used as coding tags. […] These rainbow beads were prepared in a multiplex manner such that each ligand reacted to one or a series of integrins that were coded one color, See FIG. 7 (Luo, J., et al., J Comb Chem, 2008, 10(4): p. 599-604). This rainbow bead technique was then applied to determine the integrin profile on the cell surfaces.
In FIG. 7, bone marrow cells were cultured in osteogenic medium for 7 days and incubated with rainbow beads. The purple beads that coded with LLP2A, the ligand with high affinity and specificity against α4β1, were covered with layers of cells identified by green arrows. […]

[4] = tested on: C57BL/6 mice; assay: Age-related trabecular bone loss after peak bone acquisition; type: in vivo, mouse
Excerpt: FIGS. 18A and B show LLP2A-Ale increases bone formation parameters at the trabecular DF (P<0.05) in C57BL/6 mice.

[5] = tested on: 129SvJ mice; type: in vivo, mouse
[6] = tested on: 10-week-old ovariectomized (OVX) mice; assay: Ovariectomized (OVX) mouse model; type: in vivo
Excerpt: FIG. 21 depicts histomorphometric analyses of the 5th lumbar vertebral bodies after LLP2A-Ale treatment of 10-week-old ovariectomized (OVX) mice, showing increases in osteoblast numbers, activities and bone formation rate/bone surface (BFR/BS) post-treatment. Analyses included trabecular bone area (%), osteoblast surface (Ob/BS), mineralizing surface (MS/BS) activities and BFR/BS (P<0.05).
Representative fluorescent images from the trabecular bone at the 5th LVB (Top panel: white arrowheads illustrate osteoblasts; Bottom panel: yellow arrows illustrate double labeled trabecular bone surfaces).
FIG. 23 depicts histomorphometry analyses of the right mid-femurs included bone formation at the endosteal (Ec) or periosteal (Ps.) bone surfaces, and cortical bone thickness of 10-week-old ovariectomized (OVX) mice. […] Three-point bending was performed on left femurs to obtain maximum stress of the femurs.
Short yellow arrows illustrated double labeled endocortical bone surfaces. (a, p<0.05 versus Sham; b, P<0.05 vs. OVX+PBS, c, P<0.05 vs. OVX+LLP2A; d, P<0.05 vs. OVX+Ale. Data are represented as Mean±SD).

Cc1ccccc1NC(=O)Nc1ccc(CC(=O)N[C@@H](CCCCNC(=O)/C=C/c2cccnc2)C(=O)N[C@@H](CCCC(=O)O)C(=O)NC2(C(=O)NCCOCCOCCNC(=O)CCC(=O)NCCOCCOCCNC(=O)CCC(=O)N[C@@H](CCCCNC(=O)[C@H](N)CSC3CC(=O)N(CC4CCC(C(=O)NCCCC(O)(P(=O)(O)O)P(=O)(O)O)CC4)C3=O)C(N)=O)CCCCC2)cc1 (some centres unmarked) [LLP2A-Ale, LLP2A-Alendronate]
MSC chondrogenic or adipogenic potentials [1]: without affecting | MSC osteoblast maturation, function and migration [1]: increases | location of transplanted MSCs (anti-GFP staining) ([2]; lumbar vertebral bodies, three days): observed within bone marrow and adjacent to the trabecular bone surfaces | osteocalcin levels ([2]; three days): significantly increased | osteocalcin levels ([2]; three weeks): significantly increased | cell binding to ligand-coded rainbow beads (affinity) [3]: high affinity | bone formation parameters at the trabecular DF ([4]; P<0.05): increases | age-related trabecular bone (loss) after peak bone acquisition ([4]; mouse, in vivo): prevents | bone formation parameters at trabecular bone surfaces in the lumbar vertebral bodies (LVB) ([4]; mouse, in vivo): increases | dose-response at the cortical bone compartment ([5]; 10 ng vs 250 ng/mouse): no dose-responses | mineral apposition rate ([5]; distal femur metaphysis): significant increases | osteoblast surface ([5]; distal femur metaphysis): significant increases; also recorded: increased | surface-based bone formation rate ([5]; distal femur metaphysis): significant increases | trabecular thickness ([5]; distal femur microCT, four weeks, two dose levels, vs PBS): increased | increase in cancellous bone mass from baseline ([5]; distal femur microCT, four weeks, LLP2A-Ale at higher dose level (250 ng)): ~20% | bridges between adjacent trabeculae ([5]; mouse, in vivo): formed bridges between adjacent trabeculae | early osteoblast maturation (P1NP levels) ([5]; serum): did not change | osteoblast function (osteocalcin) ([5]; serum): increased | cancellous bone mass ([5]; through increasing the thickness of the trabeculae): increases | proliferating cell populations (BrdU) ([5]; two days after i.v. injection, lumbar vertebral sections): increased these proliferating cell populations adjacent to bone surface; also recorded: increases | cancellous bone formation ([5]; young normal mice): increases | cortical bone formation ([5]; young normal mice): increases | osteoblast numbers, activities and bone formation rate/bone surface (BFR/BS) ([6]; 5th lumbar vertebral bodies): increases | maximum stress ([6]; femur three-point bending, single IV injection of conjugate or four weeks of PTH): not significantly altered | endocortical bone formation ([6]; mid-femur, vs OVX): increases | cortical bone thickness ([6]; mid-femur, single IV injection of conjugate or four weeks of PTH): not significantly altered
